We go through two compounds from ChEMBL document CHEMBL5154804, “Species-Selective Targeting of Fungal Hsp90: Design, Synthesis, and Evaluation of Novel 4,5-Diarylisoxazole Derivatives for the Combination Treatment of Azole-Resistant Candidiasis” (J Med Chem, 2022).

For one series, the target named is Heat shock protein HSP90 (Homo sapiens, UniProt P07900+P08238). Put plainly: Binding affinity to human Hsp90 expressed in Escherichia coli by SPR assay.
Series [1] can be described thus: Metabolic stability in rat liver microsomes assessed as compound remaining in presence of NADPH cofactor under shaking condition for 10 mins measured after 60 mins by LC-MS/MS analysis. The series is classed as ADME, Microsome. The conditions noted are these: time 70 min, read-out: Stability.
Series [2] has as its system Candida albicans. Kind of series: Reversal of fluconazole mediated azole resistance Candida albicans 904 assessed as downregulation of CDR2 at 32 ug/ml in presence of fluconazole by RT-PCR. The series is classed as functional, organism-based. The conditions noted are these: dose 32.0 µg/ml.
The nature of series [3]: Half life in Sprague-Dawley rat at 10 mg/kg, iv measured upto 24 hrs by LC/MS/MS analysis. The series is classed as ADME, organism-based. The conditions noted are these: in vivo.
A further series addresses CYP3A4 (Homo sapiens, UniProt P08684). Kind of series: Inhibition of CYP3A4 in human liver microsome at 10 uM using midazolam as substrate incubated for 10 mins in presence of NADPH cofactor and fluconazole by LC-MS/MS analysis. The series is classed as ADME. To be noted: liver microsomes, probe midazolam.
Series [4] is described as follows: AUC (0 to infinity) in Sprague-Dawley rat at 10 mg/kg, iv measured at upto 24 hrs by LC/MS/MS analysis. To be noted: in vivo. Set-up: dose 10 mg/kg, time < 24 hrs, route iv. The series is classed as ADME, organism-based.
A short description of series [5]: Clearance in Sprague-Dawley rat at 10 mg/kg, iv measured upto 24 hrs by LC/MS/MS analysis. In kind it is ADME, organism-based. To be noted: in vivo.
Series [6] can be described thus: AUC (0 to t) in Sprague-Dawley rat at 10 mg/kg, iv measured upto 24 hrs by LC/MS/MS analysis. In kind it is ADME, organism-based. Further details: time < 24 hrs, dose 10 mg/kg, route iv. The conditions noted are these: in vivo.
A short description of series [7]: Stability in rat plasma assessed as compound remaining at 120 mins by LC-MS/MS analysis. The series is classed as ADME, cell-free. The conditions noted are these: read-out: Stability.
The target in the next series is CYP2C9 (Homo sapiens, UniProt P11712). Kind of series: Inhibition of CYP2C9 in human liver microsome at 10 uM using diclofenac as substrate incubated for 10 mins in presence of NADPH cofactor and fluconazole by LC-MS/MS analysis. The series is classed as ADME. The conditions noted are these: liver microsomes, probe diclofenac.
Sequence of CYP2C9 (P11712 whole entry): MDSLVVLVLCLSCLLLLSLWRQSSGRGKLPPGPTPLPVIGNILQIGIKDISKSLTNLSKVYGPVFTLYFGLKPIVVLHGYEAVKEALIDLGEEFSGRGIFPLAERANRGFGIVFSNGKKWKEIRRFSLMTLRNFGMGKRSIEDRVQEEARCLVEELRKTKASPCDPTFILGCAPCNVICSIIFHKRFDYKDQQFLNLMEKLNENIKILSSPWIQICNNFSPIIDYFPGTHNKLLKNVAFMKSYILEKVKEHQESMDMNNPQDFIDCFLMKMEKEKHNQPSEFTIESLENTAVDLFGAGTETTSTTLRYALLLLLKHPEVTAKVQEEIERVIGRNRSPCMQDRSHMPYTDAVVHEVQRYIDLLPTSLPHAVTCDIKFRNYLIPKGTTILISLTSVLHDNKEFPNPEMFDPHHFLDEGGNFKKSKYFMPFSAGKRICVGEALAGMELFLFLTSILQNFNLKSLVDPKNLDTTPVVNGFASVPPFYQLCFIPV
Series [8] is described as follows: Metabolic stability in rat liver microsomes assessed as half life in presence of NADPH cofactor under shaking condition for 10 mins measured after 5 to 60 mins by LC-MS/MS analysis. The conditions noted are these: time 15-70 min. The series is classed as ADME, Microsome.
Series [9] is described as follows: MRT (0 to infinity) in Sprague-Dawley rat at 10 mg/kg, iv measured upto 24 hrs by LC/MS/MS analysis. In kind it is ADME, organism-based. The conditions noted are these: in vivo.
Series [10] can be described thus: Volume of distribution in Sprague-Dawley rat at 10 mg/kg, iv measured upto 24 hrs by LC/MS/MS analysis. The series is classed as ADME, organism-based. The conditions noted are these: in vivo.
In series [11] the test system is Candida albicans. Kind of series: Reversal of fluconazole mediated azole resistance Candida albicans 904 assessed as downregulation of CDR1 at 32 ug/ml in presence of fluconazole by RT-PCR. The series is classed as functional, organism-based. The conditions noted are these: dose 32.0 µg/ml.
For the next series, the target named is CYP2C19 (Homo sapiens, UniProt P33261). Put plainly: Inhibition of CYP2C19 in human liver microsome at 10 uM using S-mephenytoin as substrate incubated for 10 mins in presence of NADPH cofactor and fluconazole by LC-MS/MS analysis. The series is classed as ADME. The conditions noted are these: liver microsomes, probe S-mephenytoin.
Sequence of CYP2C19 (P33261 whole entry): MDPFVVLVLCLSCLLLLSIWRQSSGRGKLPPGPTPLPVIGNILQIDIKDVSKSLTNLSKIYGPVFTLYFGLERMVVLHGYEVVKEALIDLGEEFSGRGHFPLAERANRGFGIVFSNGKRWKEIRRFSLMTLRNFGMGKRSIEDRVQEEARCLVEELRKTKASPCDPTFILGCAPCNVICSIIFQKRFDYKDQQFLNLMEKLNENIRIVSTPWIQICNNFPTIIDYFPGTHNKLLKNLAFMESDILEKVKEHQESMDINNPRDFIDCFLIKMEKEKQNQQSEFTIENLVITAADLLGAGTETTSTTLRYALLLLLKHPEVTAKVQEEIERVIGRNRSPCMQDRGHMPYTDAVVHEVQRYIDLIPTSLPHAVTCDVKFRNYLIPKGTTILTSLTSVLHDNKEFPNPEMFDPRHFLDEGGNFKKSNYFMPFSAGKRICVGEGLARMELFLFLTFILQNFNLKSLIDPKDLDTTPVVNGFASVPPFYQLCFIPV
Series [12] deals with Candida albicans. Put plainly: Reversal of fluconazole mediated azole resistance Candida albicans 904 assessed as downregulation of ERG11 at 32 ug/ml in presence of fluconazole by RT-PCR. The series is classed as functional, organism-based. The conditions noted are these: dose 32.0 µg/ml.
A short description of series [13]: C0 in Sprague-Dawley rat at 10 mg/kg, iv measured upto 24 hrs by LC/MS/MS analysis. In kind it is ADME, organism-based. The conditions noted are these: in vivo.
Series [14] can be described thus: Metabolic stability in rat liver microsomes assessed as intrinsic clearance in presence of NADPH cofactor under shaking condition for 10 mins measured after 5 to 60 mins by LC-MS/MS analysis. In kind it is ADME, Microsome. The conditions noted are these: time 15-70 min.

The source made the active and inactive calls. No cut-off for these calls is given here.

Sequence of CYP3A4 (P08684 whole entry): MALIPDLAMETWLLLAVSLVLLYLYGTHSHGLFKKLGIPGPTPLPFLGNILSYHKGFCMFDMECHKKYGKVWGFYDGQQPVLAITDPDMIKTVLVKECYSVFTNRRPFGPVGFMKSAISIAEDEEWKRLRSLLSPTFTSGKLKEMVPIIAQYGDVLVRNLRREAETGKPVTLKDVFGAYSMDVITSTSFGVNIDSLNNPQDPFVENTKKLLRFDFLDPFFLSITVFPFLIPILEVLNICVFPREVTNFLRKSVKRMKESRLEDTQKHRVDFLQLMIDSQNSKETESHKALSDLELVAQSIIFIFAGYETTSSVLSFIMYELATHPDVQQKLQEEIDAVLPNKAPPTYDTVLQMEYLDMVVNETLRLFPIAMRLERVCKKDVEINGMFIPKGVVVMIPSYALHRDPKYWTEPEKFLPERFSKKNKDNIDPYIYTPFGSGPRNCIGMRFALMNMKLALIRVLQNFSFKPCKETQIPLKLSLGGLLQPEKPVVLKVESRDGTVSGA

The compound `CNC(=O)c1noc(-c2cc(-c3ccc(C)cc3)c(O)cc2O)c1-c1ccc(CN2CCOCC2)cc1` gave a Kd on Heat shock protein HSP90 of more than 25 µM.
As to `CCNC(=O)c1noc(-c2cc(-c3ccc(C)cc3)c(O)cc2O)c1-c1ccc(CN2CCOCC2)cc1`, in [1], the remaining at 1.167 h was found to be 23.6%. Also, the outcome in the series with Candida albicans [2], in the series with Candida albicans [11] and in the series on Candida albicans [12] was Active. Besides, the half-life is 1.26 h in series [3] and 0.51 h in series [8]. Besides, the inhibition at 10 min, 10 µM at CYP3A4 turned out to be 39.3%; at CYP2C9, 56.1%; on CYP2C19, 56.9%. This compound had an AUC(0-inf) in [4] of 3030 ng·h/mL. For the same compound, the clearance in series [5] is 102 mL/min/kg. Also, the AUC(0-t) at 24 h in series [6] is 3010 ng·h/mL. Moreover, the remaining at 2 h in series [7] was found to be 99.4%. In [9], this compound displayed an MRT inf of 1.12 h. This compound displayed a Vd in [10] of 11.2 L/kg. Further, the C0 at 24 h in series [13] was found to be 4750 ng/mL. Further, the CLint in series [14] stood at 81.6 mL/min/kg.
